# Laboratory results taken from PMC9157191, “The ex vivo pharmacology of HIV-1 antiretrovirals differs between macaques and humans” (iScience, 2022).
# Where “and” joins values, the source holds several entries; their conditions need not be identical. Identical values can stand only once.
# Key:
# HIV-1YU.2 M184V = assay: microbe, parasite or virus in culture; assay type: cell-based; details: Human colorectal explants
# RT-SHIV [1] = assay: tissue or blood; assay type: cell-based; details: for p27 AUC3-15: Rhesus macaque vaginal explants
# [2] = Drug concentrations in Rhesus macaque vaginal tissue explants (LC-MS/MS); assay type: in vitro ADME, Rhesus macaque (Macaca mulatta); details: for AUC3h–15d / Cmax: Rh. macaque vaginal explants, 3 h exposure; for Cmax: monkey, vaginal tissue explants, read-out: Cmax
# SIVmac32H K65RM184V [3] = assay: microbe, parasite or virus in culture; assay type: cell-based; details: for p27 AUC3-15: Rhesus macaque cervical explants
# [4] = Drug concentrations in human colorectal tissue explants (LC-MS/MS); assay type: in vitro ADME; details: for AUC3h-15d / Cmax: Human colorectal explants, 3 h exposure; for Cmax: human, colorectal tissue explants, read-out: Cmax
# RT-SHIV [5] = assay: tissue or blood; assay type: cell-based; details: for p27 AUC3-15: Rhesus macaque colorectal explants
# [6] = Drug concentrations in Rhesus macaque colorectal tissue explants (LC-MS/MS); assay type: in vitro ADME, Rhesus macaque (Macaca mulatta); details: for AUC3h–15d / Cmax: Rh. macaque colorectal explants, 3 h exposure; for Cmax: monkey, colorectal tissue explants, read-out: Cmax
# SIVmac32H M184V = assay type: cell-based, SIV
# HIV-1BaL [7] = assay: microbe, parasite or virus in culture; assay type: cell-based; details: Human cervical explants
# HIV-1YU.2 K65RM184V = assay: microbe, parasite or virus in culture; assay type: cell-based; details: Human colorectal explants;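 for p24 AUC3-15: high arm above the IC50 and low arm below the IC50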
# [8] = Drug concentrations in human ecto-cervical tissue explants (LC-MS/MS); details: for AUC3h-15d / Cmax: Human ecto-cervical explants, 3 h exposure; for Cmax: human, ecto-cervical tissue explants
# [9] = Drug concentrations in Rhesus macaque ecto-cervical tissue explants (LC-MS/MS); assay type: in vitro ADME, Rhesus macaque (Macaca mulatta); details: for AUC3h–15d / Cmax: Rh. macaque ecto-cervical explants, 3 h exposure; for Cmax: monkey, ecto-cervical tissue explants
# SIVmac32H K65R = assay type: cell-based, SIV
# HIV-1YU.2 K65R = assay: microbe, parasite or virus in culture; assay type: cell-based; details: Human colorectal explants
# HIV-1BaL [10] = assay: microbe, parasite or virus in culture; assay type: cell-based; details: Human colorectal explants
# SIVmac32H K65RM184V [11] = assay: microbe, parasite or virus in culture; assay type: cell-based; details: for p27 AUC3-15: Rhesus macaque vaginal explants
# SIVmac32H K65RM184V [12] = assay: microbe, parasite or virus in culture; assay type: cell-based; details: for p27 AUC3-15: Rhesus macaque colorectal explants
# SIVmac32H [13] = assay: microbe, parasite or virus in culture; assay type: cell-based; details: for p27 AUC3-15: Rhesus macaque cervical explants
# SIVmac32H [14] = assay: microbe, parasite or virus in culture; assay type: cell-based; details: for p27 AUC3-15: Rhesus macaque vaginal explants
# HIV-1/SIV/SHIV isolates = assay type: cell-based
# SIVmac32H [15] = assay: microbe, parasite or virus in culture; assay type: cell-based; details: for p27 AUC3-15: Rhesus macaque colorectal explants
# HIV-1YU.2 = assay: microbe, parasite or virus in culture; assay type: cell-based; details: Human colorectal explants
# [16] = high concentration: TFV 70 µM, MVC […], or TFV 70 µM + MVC […]
# [17] = low concentration: TFV 7 µM, MVC […], or TFV 7 µM + MVC […]
# [18] = Human immunodeficiency virus 1, 360 h, day 15
# [19] = Comb. gel, High [ ]: TFV 70 µM + MVC […]
# [20] = Comb. gel, Low [ ]: TFV 7 µM + MVC […]
# [21] = Single gel, High [ ]: TFV 70 µM or MVC […]
# [22] = Single gel, Low [ ]: TFV 7 µM or MVC […]
# [23] = Simian immunodeficiency virus, in Macaca mulatta, 360 h, NHP cervical explants, day 15
# [24] = Simian immunodeficiency virus, in Macaca mulatta, 360 h, NHP vaginal explants, day 15
# [25] = Simian immunodeficiency virus, in Macaca mulatta, 360 h, NHP colorectal explants, day 15
structure (smiles),measurement,setting,value
"C[C@H](Cn1cnc2c(N)ncnc21)OCP(=O)(O)O [TFV, Tenofovir]",p24 AUC3-15,HIV-1YU.2 M184V; [16],0.52 ± 0.02 µgxd/ml
same,p24 AUC3-15,HIV-1YU.2 M184V; [17],0.82 ± 0.05 µgxd/ml
same,IC50,HIV-1YU.2 M184V; [18],37.9 ± 12.5 µM
same,IC50,"RT-SHIV [1]; Macaca mulatta, 360 h, NHP vaginal explants, day 15",52.1 ± 27.3 µM
same,p27 AUC3-15,RT-SHIV [1]; [16],1.28 ± 0.27 µgxd/ml
same,p27 AUC3-15,RT-SHIV [1]; [17],1.53 ± 0.29 µgxd/ml
same,AUC3h–15d,[2]; [19],10.16 ng·days/mg
same,AUC3h–15d,[2]; [20],5.75 ng·days/mg
same,AUC3h–15d,[2]; [21],10.25 ng·days/mg
same,AUC3h–15d,[2]; [22],4.05 ng·days/mg
same,"AUC3h-15d fold increase, high versus low concentration gels",[2]; macaque vaginal explants,2.1 fold
same,Cmax,[2]; [19],1350 ng/g
same,Cmax,[2]; [20],770 ng/g
same,Cmax,[2]; [21],1370 ng/g
same,Cmax,[2]; [22],540 ng/g
same,p27 AUC3-15,SIVmac32H K65RM184V [3]; [16],1.40 ± 0.30 µgxd/ml
same,p27 AUC3-15,SIVmac32H K65RM184V [3]; [17],1.65 ± 0.30 µgxd/ml
same,IC50,SIVmac32H K65RM184V [3]; [23],81.3 ± 50.8 µM
same,AUC3h-15d,[4]; [19],6.37 ng·days/mg
same,AUC3h-15d,[4]; [20],1.99 ng·days/mg
same,AUC3h-15d,[4]; [21],6.62 ng·days/mg
same,AUC3h-15d,[4]; [22],2.47 ng·days/mg
same,"AUC3h-15d fold increase, high versus low concentration gels",[4]; human colorectal tissue,2.9 fold
same,Cmax,[4]; [19],3670 ng/g
same,Cmax,[4]; [20],1170 ng/g
same,Cmax,[4]; [21],2920 ng/g
same,Cmax,[4]; [22],1320 ng/g
same,IC50,"RT-SHIV [5]; Macaca mulatta, 360 h, NHP colorectal explants, day 15",30 ± 13.2 µM
same,p27 AUC3-15,RT-SHIV [5]; [16],1.45 ± 0.24 µgxd/ml
same,p27 AUC3-15,RT-SHIV [5]; [17],4.27 ± 2.75 µgxd/ml
same,exposure (AUC3h-15d) fold change,[6]; NHP colorectal explants versus ecto-cervical,2.5 fold
same,exposure (AUC3h-15d) fold change,[6]; NHP colorectal explants versus vaginal tissues,4.4 fold
same,AUC3h–15d,[6]; [19],66.86 ng·days/mg
same,AUC3h–15d,[6]; [20],13.99 ng·days/mg
same,AUC3h–15d,[6]; [21],30.64 ng·days/mg
same,AUC3h–15d,[6]; [22],4.68 ng·days/mg
same,Cmax,[6]; [19],44200 ng/g
same,Cmax,[6]; [20],9190 ng/g
same,Cmax,[6]; [21],20200 ng/g
same,Cmax,[6]; [22],2980 ng/g
same,IC50,SIVmac32H M184V,40.2 ± 30.1 µM
same,p24 AUC3-15,HIV-1BaL [7]; [16],1.13 ± 0.10 µgxd/ml
same,p24 AUC3-15,HIV-1BaL [7]; [17],2.55 ± 1.47 µgxd/ml
same,IC50,HIV-1BaL [7]; [18],41.4 ± 0.57 µM
same,p24 AUC3-15,HIV-1YU.2 K65RM184V; [16],1.01 ± 0.11 µgxd/ml
same,p24 AUC3-15,HIV-1YU.2 K65RM184V; [17],1.88 ± 0.07 µgxd/ml
same,IC50,HIV-1YU.2 K65RM184V; [18],36.4 ± 3.83 µM
same,AUC3h-15d,[8]; [19],30.61 ng·days/mg
same,AUC3h-15d,[8]; [20],4.409 ng·days/mg
same,AUC3h-15d,[8]; [21],25.40 ng·days/mg
same,AUC3h-15d,[8]; [22],4.05 ng·days/mg
same,average exposure (AUC3h-15d) fold change,[8]; human ecto-cervical compared to colorectal explants,3.7 fold
same,"AUC3h-15d fold increase, high versus low concentration gels",[8]; human ecto-cervical explants,6.6 fold
same,Cmax fold increase,[8]; human ecto-cervical explants versus macaque tissue,5.6 fold
same,Cmax,[8]; [19],16600 ng/g
same,Cmax,[8]; [20],2380 ng/g
same,Cmax,[8]; [21],13600 ng/g
same,Cmax,[8]; [22],2030 ng/g
same,AUC3h-15d fold increase on combining the two ARVs,"[9]; NHP ecto-cervical explants, combination versus single drug",2.2 fold
same,AUC3h–15d,[9]; [19],18.55 ng·days/mg
same,AUC3h–15d,[9]; [20],14.11 ng·days/mg
same,AUC3h–15d,[9]; [21],9.55 ng·days/mg
same,AUC3h–15d,[9]; [22],4.99 ng·days/mg
same,Cmax,[9]; [19],2460 ng/g
same,Cmax,[9]; [20],1860 ng/g
same,Cmax,[9]; [21],1250 ng/g
same,Cmax,[9]; [22],660 ng/g
same,IC50,SIVmac32H K65R,46.6 ± 12.6 µM
same,p27 AUC3-15,SIVmac32H K65R,1.43 ± 0.31 µgxd/ml and 1.95 ± 0.54 µgxd/ml
same,p24 AUC3-15,HIV-1YU.2 K65R; [16],0.41 ± 0.03 µgxd/ml
same,p24 AUC3-15,HIV-1YU.2 K65R; [17],0.71 ± 0.06 µgxd/ml
same,IC50,HIV-1YU.2 K65R; [18],62.4 ± 15.8 µM
same,p24 AUC3-15,HIV-1BaL [10]; [16],0.41 ± 0.17 µgxd/ml
same,p24 AUC3-15,HIV-1BaL [10]; [17],2.57 ± 1.81 µgxd/ml
same,IC50,HIV-1BaL [10]; [18],22.2 ± 1.39 µM
same,p27 AUC3-15,SIVmac32H K65RM184V [11]; [16],1.37 ± 0.30 µgxd/ml
same,p27 AUC3-15,SIVmac32H K65RM184V [11]; [17],1.61 ± 0.29 µgxd/ml
same,IC50,SIVmac32H K65RM184V [11]; [24],77.1 ± 31.5 µM
same,p27 AUC3-15,SIVmac32H K65RM184V [12]; [16],1.38 ± 0.27 µgxd/ml
same,p27 AUC3-15,SIVmac32H K65RM184V [12]; [17],1.70 ± 0.32 µgxd/ml
same,IC50,SIVmac32H K65RM184V [12]; [25],47.9 ± 24.9 µM
same,p27 AUC3-15,SIVmac32H [13]; [16],1.25 ± 0.36 µgxd/ml
same,p27 AUC3-15,SIVmac32H [13]; [17],1.46 ± 0.52 µgxd/ml
same,IC50,SIVmac32H [13]; [23],52.6 ± 41.5 µM
same,p27 AUC3-15,SIVmac32H [14]; [16],1.27 ± 0.24 µgxd/ml
same,p27 AUC3-15,SIVmac32H [14]; [17],1.44 ± 0.28 µgxd/ml
same,IC50,SIVmac32H [14]; [24],56.1 ± 62.9 µM
same,potency against the mutant isolates,HIV-1/SIV/SHIV isolates,reduced
same,median (IQR) fold decreased IC50 values for matched isolates,"HIV-1/SIV/SHIV isolates; colorectal tissue compared to female genital tract tissue, NHP and human explants",1.8 (1.7–2.1) fold
same,p27 AUC3-15,SIVmac32H [15]; [16],1.23 ± 0.14 µgxd/ml
same,p27 AUC3-15,SIVmac32H [15]; [17],4.84 ± 1.77 µgxd/ml
same,IC50,SIVmac32H [15]; [25],25.4 ± 5.35 µM
same,p24 AUC3-15,HIV-1YU.2; [16],1.83 ± 0.18 µgxd/ml
same,p24 AUC3-15,HIV-1YU.2; [17],10.73 ± 5.56 µgxd/ml
same,IC50,HIV-1YU.2; [18],28.9 ± 11.8 µM
